# Assay results reported in US8298582B2, “Polysaccharide-based impregnated solid material with improved stability, processes for the preparation thereof and impregnating solutions used” (Hydro-Quebec, priority 2006, dated 2012).
# Assays:
# [1] = Resistance to leaching, modified AWPA procedure E11-06 (5 faces protected); format: physicochemical
# Description: This technique is based on AWPA protocol E11-06. The blocks are soaked in demineralized water at ambient temperature. Water samples are taken regularly and an analysis by ICP spectrometry is carried out (after dilution of the solution by a factor of 250) in order to evaluate the amount of boron present in the solution. The results are represented in FIGS. 5 and 5′.
# Gleophyllum trabeum = test: Soil-block culture test, AWPA protocol E10-06, on leached treated wood blocks; format: cell-based; conditions: after 20 weeks of exposure, red pine sapwood blocks leached one week before the test
# Description: (§1) Tests for evaluating the degradation-resistance of the wood according to various treatments were carried out by following AWPA protocol E10-06. These tests were carried out using two brown rots: Postia placenta and Gleophyllum trabeum.
# (§2) These two preparations are used to treat blocks of 19 mm×19 mm×19 mm of red pine sapwood by means of a partial vacuum of −65 cmHg maintained for 30 minutes. This type of solution forms a gel in the cells of the wood after a period of one hour. In order to accelerate the crosslinking process and to allow drying, the blocks are heated overnight at 60° C.
# (§3) In order to validate the capacity of our treatment to retain the boron in the wood and to play its role of wood-preserving agent, the treated blocks were soaked for one week in demineralized water in order to extract all traces of non-chelated boric acid or DOT.
# (§4) After drying, the blocks were subjected to the laboratory “soil-block” culture test, strictly according to AWPA protocol E10-06.
# Postia placenta = test: as above; format: cell-based; conditions: after 20 weeks of exposure, red pine sapwood blocks leached one week before the test
# Description: as §1, §2, §3, §4
smiles,measurement,setting,value
"OB(O)O [Boric acid, boric acid]",loss of boron,"[1]; over a period of 8 days, red pine sapwood cubes",67%
same,loss of boron,[1]; over a period of 15 days,32%
same,Weight loss (%) Gleophyllum trabeum,Gleophyllum trabeum,67.5%
same,Weight loss (%) Gleophyllum trabeum,Gleophyllum trabeum; listed as boric acid,substantial loss
same,Weight loss (%) Postia placenta,Postia placenta,67.5%
same,Weight loss (%) Postia placenta,Postia placenta; listed as boric acid,substantial loss
